Test results taken from US20190336598A1, “METHODS FOR MODULATING INFLAMMASOME ACTIVITY AND INFLAMMATION IN THE LUNG” (UNIVERSITY OF MIAMI, priority 2016, published 2019).
“Also recorded” adds a separate entry of the source.

Tests used:
Format in all cases: in vivo, C57-BL6 mice
[1] = tested on: lungs of animals delivered EV from injured mice (ALI); experiment: Histology (H&E) and acute lung injury scoring after adoptive transfer of EV from TBI mice and treatment; details: Enoxaparin 3 mg/kg or IC 100 5 mg/kg one hour after EV from TBI mice; for neutrophil infiltration into alveolar and interstitial space (H&E stained lung sections, FIG. 9A-D) / septal thickening (H&E stained lung sections, FIG. 9A-D): lungs 24 hours after injection; for ALI score (FIG. 9E): vs untreated group, score 0 (no injury) to 1 (severe injury), p=<0.0001
Procedure: (§1) Serum-derived EV from C57BL-6 TBI and sham mice were injected into naïve C57BL-6 mice through the jugular vein at a dose of 1.0×10^10 particles per gram/body weight^48. Particle count was measured by Nanosight Tracking analysis and samples were diluted accordingly. Prior to surgery animals were anesthetized with ketamine and […]. A 1-2 cm incision was made between the jaw and the clavicle. The jugular vein was elevated and tied, followed by catheter placement. Serum-derived EV were transferred and lung and brain tissues were collected 24 hours after injection for analysis (n=5).
(§2) Serum-derived EV from TBI mice were injected into naïve C57-BL6 mice through a jugular vein injection. One hour later, Enoxaparin (3 mg/kg) (n=4) and Anti-ASC (5 mg/kg) (n=4) were administered to recipient animals. The following groups were used: 1) the naïve group received no treatment, 2) the sham saline group was used as a negative control and underwent jugular vein injection of only saline, 3) the untreated group received EV from TBI mice without any treatment and was used as a positive control, 4) the ENOX group received EV from TBI mice and Enoxaparin, and 5) the Anti-ASC group received EV from TBI mice and Anti-ASC. The order of treatment was randomized. Lung and brain tissues were collected 24 hours after injection for analysis. It should be noted that the anti-ASC antibody used in the treatment experiments was a humanized monoclonal antibody against ASC and recognizes murine, human and swine ASC.
Lung tissue sections were stained by a standard hematoxylin and eosin method for histology, morphometry and ALI scoring. Lung sections were scored by a blinded pathologist using the Lung Injury Scoring System from the American Thoracic Society Workshop Report (17). Twenty random high power fields were chosen for scoring. Criteria for ALI scoring was based on number of neutrophils in the alveolar space, interstitial space, hyaline membranes, proteinaceous debris filling the airspaces and alveolar septal thickening. Based on these criteria a score between 0 (no injury) and 1 (severe injury) was given.

[2] = tested on: inflammasome proteins (caspase-1, ASC, IL-1β, AIM2, HMGB1) in lungs; experiment: Immunoblot of inflammasome proteins in lungs after adoptive transfer of EV from TBI mice and treatment; details: vs untreated positive control animals; Enoxaparin 3 mg/kg, IC 100 5 mg/kg; N=4 per group
[3] = tested on: inflammasome proteins (caspase-1, ASC, IL-1β, AIM2, HMGB1) in lungs; experiment: as above; details: vs untreated positive control; Enoxaparin 3 mg/kg or IC 100 5 mg/kg one hour after EV from TBI mice; lungs collected 24 hours after injection; p=<0.0001
Procedure: Lung and brain tissue samples were snap frozen in liquid nitrogen and stored in −80° C. 2-mm sections of right lower lung and right cortical tissue were homogenized in extraction buffer containing protease and phosphatase inhibitor cocktail (Sigma, St Louis, Mo., USA) and resolved in 4-20% Tris-TGX Criterion precasted gels (Bio-Rad, Hercules, Calif., USA) as described in de Rivero Vaccari et al. 2015 (13) using antibodies to caspase-1 (Novus Biologicals), ASC (Santa Cruz), IL-1 β (Cell Signaling), IL-18 (Abcam) AIM2 (Santa Cruz) and HMGB1 (Millipore). Quantification of band density was performed using Image Lab and all data were normalized to β-actin.
as §1, §2

Molecule: Enoxaparin
- neutrophil infiltration into alveolar and interstitial space (H&E stained lung sections, FIG. 9A-D) [1]: significantly less
- septal thickening (H&E stained lung sections, FIG. 9A-D) [1]: no signs
- ALI score (FIG. 9E) [1]: significantly lower; also recorded: significantly decreased
- IL-1β in lungs (FIG. 8D) [2]: reduced
- AIM2 in lungs (FIG. 8E) [3]: significantly reduced
- ASC in lungs (FIG. 8C) [3]: significantly reduced
- Caspase-1 in lungs (FIG. 8B) [3]: significantly reduced
- HMGB1 in lungs (FIG. 8F) [3]: significantly reduced
- IL-1β in lungs (FIG. 8D) [3]: significantly reduced

B1: IC 100: humanized monoclonal antibody against ASC; recognizes murine, human and swine ASC (antibody, V domains shown)
VH: QVTLKESGPALVKPTQTLTLTCSFSGFSLSTSGMGVSWIRQPAGKGLEWLAHIYWDDDKRYNPSLKSRLTISKDSSKNQVVLTMTNMDPVDTATYSCARSTPIVANAMDYWGQGTLVTVSS
VL: DIVMTQSPDSLAVSLGERATINCKASQSVDYDGDSYMNWYQQKPGQPPKLLIYAASNLESGIPARFSGSGSGTDFTLTISSLQPEDVATYYCQQSNEDPYTFGQGTKLEIK
- neutrophil infiltration into alveolar and interstitial space (H&E stained lung sections, FIG. 9A-D) [1]: significantly less
- septal thickening (H&E stained lung sections, FIG. 9A-D) [1]: no signs
- ALI score (FIG. 9E) [1]: significantly lower; also recorded: significantly decreased
- IL-1β in lungs (FIG. 8D) [2]: reduced
- AIM2 in lungs (FIG. 8E) [3]: significantly reduced
- ASC in lungs (FIG. 8C) [3]: significantly reduced
- Caspase-1 in lungs (FIG. 8B) [3]: significantly reduced
- HMGB1 in lungs (FIG. 8F) [3]: significantly reduced
- IL-1β in lungs (FIG. 8D) [3]: significantly reduced
